Earlier results as cited in patent publication US8871712B2, “Somatostatin analogue formulations” (Camurus AB, priority 2005, dated 2014).

Details: in vivo

## C[C@@H](O)[C@@H]1NC(=O)[C@H](CCCCN)NC(=O)[C@@H](Cc2c[nH]c3ccccc23)NC(=O)[C@H](Cc2ccccc2)NC(=O)[C@@H](NC(=O)[C@H](N)Cc2ccccc2)CSSC[C@@H](C(=O)N[C@H](CO)[C@@H](C)O)NC1=O [Octreotide, D-Phe-Cys-Phe-D-Trp-Lys-Thr-Cys-Thr-ol (2-7 disulphide bridge)]
  Terminal half-life: around 1.7 hours
